From patent publication US10576062B2, “Carbamoyloxymethyl triazole cyclohexyl acids as LPA antagonists” (Bristol-Myers Squibb Company, priority 2016, dated 2020) come the findings set out here.

One may read the IC50 as the midpoint of a concentration-inhibition curve.

For the first assay, the target named is T1, human LPA1 (Homo sapiens, UniProt Q92633).
T1 construct: expressed in transfected cells; host or cells: Chinese hamster ovary (CHO) cells
T1 sequence (Q92633 whole entry): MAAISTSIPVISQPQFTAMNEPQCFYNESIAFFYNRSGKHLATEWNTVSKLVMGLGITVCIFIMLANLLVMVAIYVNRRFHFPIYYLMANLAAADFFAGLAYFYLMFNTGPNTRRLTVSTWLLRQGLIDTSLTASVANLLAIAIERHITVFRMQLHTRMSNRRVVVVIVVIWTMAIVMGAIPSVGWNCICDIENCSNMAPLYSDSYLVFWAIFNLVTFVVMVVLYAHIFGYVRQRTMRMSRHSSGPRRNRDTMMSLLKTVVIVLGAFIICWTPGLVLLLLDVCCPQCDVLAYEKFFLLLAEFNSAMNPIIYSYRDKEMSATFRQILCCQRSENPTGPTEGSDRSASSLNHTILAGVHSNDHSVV
Description: LPA1 functional antagonist assay (LPA-induced calcium flux). The format is cell-based. The following applies: CHO cells overexpressing human LPA1; inhibition of calcium flux induced by 10 nM LPA; read-out: hLPA1 IC50. The gist of the method:
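CHO cells overexpressing human LPA1, loaded with calcium dye 30 min at 37° C, were preincubated 20 min at room temperature with compound (0.08 nM–5 μM, 0.5% DMSO) in HBSS/20 mM HEPES/0.1% fatty acid-free BSA.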
(Calcium flux is commonly read through the fluorescence of an indicator in the cells.)
Consider `CCc1nc(-c2nnn(C)c2COC(=O)N(C)CC2CC2)ccc1O[C@H]1CCC[C@H](C(=O)O)C1` [Example 194, (1S,3S)-3-((6-(5-((((cyclopropylmethyl)(methyl)carbamoyl)oxy)methyl)-1-methyl-1H-1,2,3-triazol-4-yl)-2-ethylpyridin-3-yl)oxy)cyclohexane-1-carboxylic acid], for which the IC50 is 14 nM.

`CCc1nc(-c2nnn(C)c2COC(=O)N(C)C2CCCC2)ccc1O[C@H]1CCC[C@H](C(=O)O)C1` [Example 195, (1S,3S)-3-((6-(5-(((cyclopentyl(methyl)carbamoyl)oxy)methyl)-1-methyl-1H-1,2,3-triazol-4-yl)-2-ethylpyridin-3-yl)oxy)cyclohexane-1-carboxylic acid]: the IC50 amounted to 11 nM. The same measure, in the same setting: in the case of `CCc1nc(-c2nnn(C)c2COC(=O)N(C)CC(C)C)ccc1O[C@H]1CCC[C@H](C(=O)O)C1` [Example 197, (1S,3S)-3-((2-ethyl-6-(5-(((isobutyl(methyl)carbamoyl)oxy)methyl)-1-methyl-1H-1,2,3-triazol-4-yl)pyridin-3-yl)oxy)cyclohexane-1-carboxylic acid] it was 27 nM; in that of `CCc1nc(-c2nnn(C)c2COC(=O)NCc2ccccc2)ccc1O[C@H]1CCC[C@H](C(=O)O)C1` [Example 198, (1S,3S)-3-((6-(5-(((benzylcarbamoyl)oxy)methyl)-1-methyl-1H-1,2,3-triazol-4-yl)-2-ethylpyridin-3-yl)oxy)cyclohexane-1-carboxylic acid], 46 nM.

For the compound `CCCCN(C)C(=O)OCc1c(-c2ccc(O[C@H]3CCC[C@H](C(=O)O)C3)c(CC)n2)nnn1C` [Example 199, (1S,3S)-3-((6-(5-(((butyl(methyl)carbamoyl)oxy)methyl)-1-methyl-1H-1,2,3-triazol-4-yl)-2-ethylpyridin-3-yl)oxy)cyclohexane-1-carboxylic acid], the 50% inhibitory concentration (IC50) stood at 7 nM. Same read-out and setting: next, `CCCN(C)C(=O)OCc1c(-c2ccc(O[C@H]3CCC[C@H](C(=O)O)C3)c(CC)n2)nnn1C` [Example 200, (1S,3S)-3-((2-ethyl-6-(1-methyl-5-(((methyl(propyl)carbamoyl)oxy)methyl)-1H-1,2,3-triazol-4-yl)pyridin-3-yl)oxy)cyclohexane-1-carboxylic acid]: 11 nM.

As to `CCc1nc(-c2nnn(C)c2COC(=O)N(C)Cc2ccccc2)ccc1O[C@H]1CCC[C@H](C(=O)O)C1` [Example 201, (1S,3S)-3-((6-(5-(((benzyl(methyl)carbamoyl)oxy)methyl)-1-methyl-1H-1,2,3-triazol-4-yl)-2-ethylpyridin-3-yl)oxy)cyclohexane-1-carboxylic acid], the IC50 was 25 nM. Consider `CCc1nc(-c2nnn(C)c2COC(=O)N(C)CC)ccc1O[C@H]1CCC[C@H](C(=O)O)C1` [Example 202, (1S,3S)-3-((2-ethyl-6-(5-(((ethyl(methyl)carbamoyl)oxy)methyl)-1-methyl-1H-1,2,3-triazol-4-yl)pyridin-3-yl)oxy)cyclohexane-1-carboxylic acid], for which the 50% inhibitory concentration (IC50) was found to be 160 nM.

In the case of `CCc1nc(-c2nnn(C)c2COC(=O)N(C)C2CCC2)ccc1O[C@H]1CCC[C@H](C(=O)O)C1` [Example 203, (1S,3S)-3-((6-(5-(((cyclobutyl(methyl)carbamoyl)oxy)methyl)-1-methyl-1H-1,2,3-triazol-4-yl)-2-ethylpyridin-3-yl)oxy)cyclohexane-1-carboxylic acid], the IC50 came out at 8 nM. Same read-out and setting: next, `CCc1nc(-c2nnn(C)c2COC(=O)N2CC(C)(C)C2)ccc1O[C@H]1CCC[C@H](C(=O)O)C1` [Example 204, (1S,3S)-3-((6-(5-(((3,3-dimethylazetidine-1-carbonyl)oxy)methyl)-1-methyl-1H-1,2,3-triazol-4-yl)-2-ethylpyridin-3-yl)oxy)cyclohexane-1-carboxylic acid]: 102 nM; `CCc1nc(-c2nnn(C)c2COC(=O)NC23CC(C2)C3)ccc1O[C@H]1CCC[C@H](C(=O)O)C1` [Example 205, (1S,3S)-3-((6-(5-(((bicyclo[1.1.1]pentan-1-ylcarbamoyl)oxy)methyl)-1-methyl-1H-1,2,3-triazol-4-yl)-2-ethylpyridin-3-yl)oxy)cyclohexane-1-carboxylic acid]: 842 nM. The same measure, in the same setting: next, `CCc1nc(-c2nnn(C)c2COC(=O)N(C)C23CC(C2)C3)ccc1O[C@H]1CCC[C@H](C(=O)O)C1` [Example 206, (1S,3S)-3-((6-(5-(((bicyclo[1.1.1]pentan-1-yl(methyl)carbamoyl)oxy)methyl)-1-methyl-1H-1,2,3-triazol-4-yl)-2-ethylpyridin-3-yl)oxy)cyclohexane-1-carboxylic acid]: 34 nM. As to `CCCC1(N(C)C(=O)OCc2c(-c3ccc(O[C@H]4CCC[C@H](C(=O)O)C4)c(CC)n3)nnn2C)CC1` [Example 207, (1S,3S)-3-((2-ethyl-6-(1-methyl-5-(((methyl(1-propylcyclopropyl)carbamoyl)oxy)methyl)-1H-1,2,3-triazol-4-yl)pyridin-3-yl)oxy)cyclohexane-1-carboxylic acid], the IC50 stood at 133 nM. For the compound `CCc1nc(-c2nnn(C)c2COC(=O)N(C)CCC(C)C)ccc1O[C@H]1CCC[C@H](C(=O)O)C1` [Example 208, (1S,3S)-3-((2-ethyl-6-(5-(((isopentyl(methyl)carbamoyl)oxy)methyl)-1-methyl-1H-1,2,3-triazol-4-yl)pyridin-3-yl)oxy)cyclohexane-1-carboxylic acid], the IC50 amounted to 26 nM. Still for that read-out and setting: next, `CCc1nc(-c2nnn(C)c2COC(=O)N(C)CCC2CC2)ccc1O[C@H]1CCC[C@H](C(=O)O)C1` [Example 209, (1S,3S)-3-((6-(5-((((2-cyclopropylethyl)(methyl)carbamoyl)oxy)methyl)-1-methyl-1H-1,2,3-triazol-4-yl)-2-ethylpyridin-3-yl)oxy)cyclohexane-1-carboxylic acid]: 22 nM; `CCc1nc(-c2nnn(C)c2COC(=O)N2CC3(CCC3)C2)ccc1O[C@H]1CCC[C@H](C(=O)O)C1` [Example 210, (1S,3S)-3-((6-(5-(((2-azaspiro[3.3]heptane-2-carbonyl)oxy)methyl)-1-methyl-1H-1,2,3-triazol-4-yl)-2-ethylpyridin-3-yl)oxy)cyclohexane-1-carboxylic acid]: 67 nM.

The assay is the same for the next values; noted with them: human LPA1; read-out: hLPA1 IC50.
As to `CN(C(=O)OCc1c(-c2ccc(O[C@H]3CCC[C@H](C(=O)O)C3)cn2)nnn1C)C1CC(C)(C)C1` [Example 181, (1S,3S)-3-((6-(5-((((3,3-dimethylcyclobutyl)(methyl)carbamoyl)oxy)methyl)-1-methyl-1H-1,2,3-triazol-4-yl)pyridin-3-yl)oxy)cyclohexane-1-carboxylic acid], the IC50 turned out to be 101 nM. Same read-out and setting: in the case of `CN(C(=O)OCc1c(-c2ccc(O[C@H]3CCC[C@H](C(=O)O)C3)cn2)nnn1C)C1CC2(CC2)C1` [Example 183, (1S,3S)-3-((6-(1-methyl-5-(((methyl(spiro[2.3]hexan-5-yl)carbamoyl)oxy)methyl)-1H-1,2,3-triazol-4-yl)pyridin-3-yl)oxy)cyclohexane-1-carboxylic acid] it was 20 nM; in that of `Cc1nc(-c2nnn(C)c2COC(=O)N(C)CCC(C)(C)F)ccc1O[C@H]1CCC[C@H](C(=O)O)C1` [Example 187, (1S,3S)-3-((6-(5-((((3-fluoro-3-methylbutyl)(methyl)carbamoyl)oxy)methyl)-1-methyl-1H-1,2,3-triazol-4-yl)-2-methylpyridin-3-yl)oxy)cyclohexane-1-carboxylic acid], 50 nM.

As for `CN(CCC(C)(C)F)C(=O)OCc1c(-c2ccc(O[C@H]3CCC[C@H](C(=O)O)C3)cn2)nnn1C` [Example 188, (1S,3S)-3-((6-(5-((((3-fluoro-3-methylbutyl)(methyl)carbamoyl)oxy)methyl)-1-methyl-1H-1,2,3-triazol-4-yl)pyridin-3-yl)oxy)cyclohexane-1-carboxylic acid], the IC50 was determined as 32 nM. The same measure, in the same setting: next, `Cc1nc(-c2nnn(C)c2COC(=O)N(C)CC2(F)CCC2)ccc1O[C@H]1CCC[C@H](C(=O)O)C1` [Example 189, (1S,3S)-3-((6-(5-(((((1-fluorocyclobutyl)methyl)(methyl)carbamoyl)oxy)methyl)-1-methyl-1H-1,2,3-triazol-4-yl)-2-methylpyridin-3-yl)oxy)cyclohexane-1-carboxylic acid]: 120 nM; `Cc1nc(-c2nnn(C)c2COC(=O)N(C)CCCF)ccc1O[C@H]1CCC[C@H](C(=O)O)C1` [Example 190, (1S,3S)-3-((6-(5-((((3-fluoropropyl)(methyl)carbamoyl)oxy)methyl)-1-methyl-1H-1,2,3-triazol-4-yl)-2-methylpyridin-3-yl)oxy)cyclohexane-1-carboxylic acid]: 81 nM.

Consider `Cc1nc(-c2nnn(C)c2COC(=O)NCCCCF)ccc1O[C@H]1CCC[C@H](C(=O)O)C1` [Example 191, (1S,3S)-3-((6-(5-((((4-fluorobutyl)carbamoyl)oxy)methyl)-1-methyl-1H-1,2,3-triazol-4-yl)-2-methylpyridin-3-yl)oxy)cyclohexane-1-carboxylic acid], for which the IC50 was 553 nM. On the same count and under the same terms, in the case of `Cc1nc(-c2nnn(C)c2COC(=O)N(C)CCCCF)ccc1O[C@H]1CCC[C@H](C(=O)O)C1` [Example 192, (1S,3S)-3-((6-(5-((((4-fluorobutyl)(methyl)carbamoyl)oxy)methyl)-1-methyl-1H-1,2,3-triazol-4-yl)-2-methylpyridin-3-yl)oxy)cyclohexane-1-carboxylic acid] it was 36 nM. Same read-out and setting: next, `CCCN(C)C(=O)OCc1c(-c2ccc(O[C@@H]3CCC[C@@H](C(=O)O)C3)c(C)n2)nnn1C` [Example 193, (1R,3R)-3-((2-methyl-6-(1-methyl-5-(((methyl(propyl)carbamoyl)oxy)methyl)-1H-1,2,3-triazol-4-yl)pyridin-3-yl)oxy)cyclohexane-1-carboxylic acid]: 1700 nM.
